We go through three molecules from paper PMC6203352, “Involvement of VNUT-exocytosis in transient receptor potential vanilloid 4-dependent ATP release from gastrointestinal epithelium” (PLoS ONE, 2018).

Common to all, as to type: cell-based
The target in experiment [1] is T1, TRPV4 (Homo sapiens, UniProt Q9HBA0). The experiment can be described thus: fura-2 Ca2+ imaging dose-response in CCD […] cells (endogenous TRPV4), blocked by RN1734.
The target of experiment [2] is T1, TRPV4. The experiment can be described thus: fura-2 Ca2+ imaging dose-response in CCD […] cells (endogenous TRPV4).
Experiment [3] deals with T1, TRPV4. The experiment can be described thus: inhibition of GSK101 ([…])-induced Ca2+ response, fura-2 imaging in CCD […] cells (endogenous TRPV4).

Structures are written as SMILES.

T1 sequence (Q9HBA0 whole entry): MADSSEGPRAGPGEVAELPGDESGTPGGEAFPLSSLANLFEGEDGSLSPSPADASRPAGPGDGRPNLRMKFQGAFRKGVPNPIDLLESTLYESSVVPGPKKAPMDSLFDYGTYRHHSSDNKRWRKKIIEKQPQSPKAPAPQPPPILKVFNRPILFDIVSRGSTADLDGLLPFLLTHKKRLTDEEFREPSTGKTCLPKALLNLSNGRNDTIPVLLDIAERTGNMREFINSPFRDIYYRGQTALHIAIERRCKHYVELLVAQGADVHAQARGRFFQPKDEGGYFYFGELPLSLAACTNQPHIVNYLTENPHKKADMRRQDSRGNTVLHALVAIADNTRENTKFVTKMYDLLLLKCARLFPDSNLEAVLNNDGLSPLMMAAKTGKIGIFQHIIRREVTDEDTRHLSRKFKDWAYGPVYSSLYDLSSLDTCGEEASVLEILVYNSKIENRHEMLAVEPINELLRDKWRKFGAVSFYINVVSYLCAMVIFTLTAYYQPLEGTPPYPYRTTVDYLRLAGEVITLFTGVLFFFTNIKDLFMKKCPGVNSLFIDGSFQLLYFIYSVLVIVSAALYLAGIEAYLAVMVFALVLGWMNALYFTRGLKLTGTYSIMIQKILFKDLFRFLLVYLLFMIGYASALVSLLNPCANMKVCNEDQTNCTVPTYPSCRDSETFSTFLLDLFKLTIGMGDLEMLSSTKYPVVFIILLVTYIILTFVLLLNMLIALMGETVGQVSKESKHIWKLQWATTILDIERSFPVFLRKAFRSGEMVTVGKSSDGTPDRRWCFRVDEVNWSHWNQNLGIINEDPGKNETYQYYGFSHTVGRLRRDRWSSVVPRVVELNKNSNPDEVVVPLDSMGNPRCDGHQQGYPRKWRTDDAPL

Regarding `CCCCC/C=C\C/C=C\CC1OC1C/C=C\CCCC(=O)OC` (stereo not drawn) [8,9-EET methylestel], the EC50 at TRPV4 [1] turned out to be 111 nM.
In the case of `CC(C)C[C@H](NC(=O)c1cc2ccccc2s1)C(=O)N1CCN(C(=O)[C@H](CO)NS(=O)(=O)c2ccc(Cl)cc2Cl)CC1` [GSK101, N-((1S)-1-{[4-((2S)-2-{[(2,4-dichlorophenyl)sulfonyl]amino}-3-hydroxypropanoyl)-1-piperazinyl]carbonyl}-3-methylbutyl)-1-benzothiophene-2-carboxamide], a half-maximal effect at TRPV4 [2] (EC50) was put at 231 nM.
With `CC(C)NCCN(C(C)C)S(=O)(=O)c1ccc(Cl)cc1Cl` [RN1734], on TRPV4 [3], half-maximal inhibition (IC50) was put at 0.703 nM.

As usually defined, the EC50 is the concentration needed to bring the measured effect to its halfway point. High values mean a need for much substance, low ones an effect from little substance. A word on the IC50: it is the concentration at which inhibition is half-maximal. A high value points to weaker potency in that assay.
